Data set [1] deals with T1, human adenosine A2A receptor (Homo sapiens, UniProt P29274).
T1 construct: expressed in transfected cells; host or cells: CHO cells, semliki forest virus expression system; membrane preparation
The experiment in a line: [3H]-SCH-58261 binding assay, human adenosine A2A receptor expressed in CHO cell membranes (SPA). Conditions: [3H]-SCH-58261 1 nM, Ki by Cheng-Prussoff equation, read-out: hA2 (pKi) (converted). As for the experimental part: Human Adenosine A2A Receptor
The human adenosine A2A receptor was recombinantly expressed in chinese hamster ovary (CHO) cells using the semliki forest virus expression system. Cells were harvested, washed twice by centrifugation, homogenised and again washed by centrifugation. The final washed membrane pellet was suspended in a Tris (50 mM) buffer containing 120 mM NaCl, 5 mM KCl, 2 mM CaCl2 and 10 mM MgCl2 (pH 7.4) (buffer A). The [^3H]-SCH-58261 (Dionisotti et al., 1997, Br J Pharmacol 121, 353; 1 nM) binding assay was carried out in 96-well plates in the presence of 2.5 μg of membrane protein, 0.5 mg of Ysi-poly-1-lysine SPA beads and 0.1 U adenosine deaminase in a final volume of 200 μl of buffer A. Non-specific binding was defined using xanthine amine congener (XAC; 2 μM). Compounds were tested at 10 concentrations from 10 μM-0.3 nM. All assays were conducted in duplicate and repeated at least two times. Assay plates were incubated for 1 hour at room temperature before centrifugation and then bound ligand determined using a Packard Topcount scintillation counter. IC50 values were calculated using a non-linear curve fitting program and Ki values calculated using the Cheng-Prussoff equation.

From patent publication US6734179B2, “Benzothiazoles” (Hoffmann-La Roche Inc., priority 2001, dated 2004) come the findings set out here.

Each structure is given as a SMILES string.

T1 sequence (P29274 whole entry): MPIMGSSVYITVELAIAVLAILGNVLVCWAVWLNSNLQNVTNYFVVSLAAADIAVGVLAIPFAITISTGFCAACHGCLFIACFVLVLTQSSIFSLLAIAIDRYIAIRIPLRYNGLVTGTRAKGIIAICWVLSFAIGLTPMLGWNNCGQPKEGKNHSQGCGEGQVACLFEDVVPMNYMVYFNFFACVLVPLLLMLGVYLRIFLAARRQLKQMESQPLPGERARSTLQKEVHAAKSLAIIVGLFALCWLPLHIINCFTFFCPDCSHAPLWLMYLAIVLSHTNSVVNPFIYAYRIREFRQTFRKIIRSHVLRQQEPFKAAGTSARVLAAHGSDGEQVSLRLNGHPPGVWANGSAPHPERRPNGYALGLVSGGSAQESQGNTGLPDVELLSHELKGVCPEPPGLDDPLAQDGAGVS

The term melting point denotes the temperature of the solid-liquid transition. Regarding `COc1ccc(C2CCOCC2)c2sc(NC(=O)N3CCC(O)CC3)nc12` [Example 45, 4-Hydroxy-piperidine-1-carboxylic acid [4-methoxy-7-(tetrahydro-pyran-4-yl)-benzothiazol-2-yl]-amide], the melting point lay within 106 to 109 °C. The Ki in data set [1] is 1.62 nM.
